This passage reports Microsomal stability human and residence time results from patent publication US20180118721A1, “PYRIMIDINE DERIVATIVES” (Merck Patent GmbH, priority 2015, published 2018).

The nature of data set [1]: Microsomal stability (intrinsic clearance), human. The following applies: human liver microsomes, 0.5 mg/ml protein, Clint. The data set is classed as in vitro ADME. An excerpt: A microsomal stability assay is used to measure in vitro clearance (Clint). The assay involves measuring the rate of disappearance of a compound due to its intrinsic attitude to be metabolized (“intrinsic” meaning that the disappearance is not affected by other properties like permeability, binding etc. that play a role when quantifying in vivo clearance). The microsomal stability (intrinsic clearance, Clint) and thus metabolic stability is generally given as μl/min/mg protein. It can be visualized as the volume of solution that 1 mg of microsomes is able to clear of the compound in one minute.
A Tecan Genesis workstation (RSP 150/8) was used for to perform the microsomal incubations. Analysis was carried out using a Waters ACQUITY UPLC system coupled to an ABSciex API3000 mass spectrometer. Data analysis was performed using Assay Explorer (Symyx).
Column: Acquity UPLC BEH C18, 2.1×50 mm, 1.7 μm (Waters) Mobile phases: A=0.1% formic acid in water; B=acetonitrile
Flow rate: 0.750 mL/min; Detection: ESI, MRM; Injection: 10 μL; Column temperature: 50° C.
• Potassium phosphate buffer: 0.05 M potassium phosphate buffer pH 7.4 containing 1 mM MgCl2 • NADPH (nicotinamide adenine dinucleotide phosphate): 22.5 mg NADPH-Na4 in 1.8 ml potassium phosphate buffer • Acetonitrile: 50 Vol % acetonitrile (1 volume acetonitrile, 1 volume water) • DMSO: 20 Vol % DMSO in water • Stock solution of 20 mg/ml human or mouse liver microsomes (protein)/ml in phosphate buffer • Stock solution of 10 mM compound in 100% DMSO
Dilution of test compounds was done in 2 steps starting from a 10 mM stock solution of the respective compound in 100% DMSO. First 4 μl stock solution was added to 196 μl of 20 Vol % DMSO. In a second step, 10 μl of the first dilution were added to 1590 μl potassium phosphate buffer to achieve a final concentration of 1.25 μM in the final compound dilution. Thus, the amount of organic solvent in the assay was kept to a minimum (<1%).
The human or mouse liver microsome (protein) solution to be used in the assay was prepared by mixing 750 μl stock solution (20 mg/ml) and 2250 μl potassium phosphate buffer to a final concentration of 5 mg/ml.
Incubation was carried out on a 96 deep well incubation plate. 160 μl per well of the final compound dilution were transferred onto the incubation plate. Four samples of each compound dilution were assayed. 20 μl/well liver microsome solution was added to each well and the samples were then preincubated for 5 min at 37° C. and 800 rpm agitation. Two reference compounds (verapamil and dextromethorphan) were used in parallel in every experiment and for each species (human or mouse microsomes) to ensure system performance and for comparison.
On a separate stop plate, 160 μl acetonitrile were added per well.
After preincubation, i.e. at time t1=0 minutes, 18 μl samples of incubated compound solution and were transferred and added per well (containing acetonitrile) on the stop plate to prevent a reaction (0 minutes control samples, 4 samples per compound). Equally, 18 μl samples of incubated reference compound solution were transferred and added per well (containing acetonitrile) on the stop plate at time t1=0 minutes and again after 30 minutes (t4), solubility and chemical stability of the compound were checked. […]

The target of data set [2] is T1, humanMTH1 (aminoacids 42 to 197) (Homo sapiens, UniProt P36639).
T1 construct: humanMTH1 (aminoacids 42 to 197); His tag at the N-terminus; purchased Abnova ab99390; host or cells: E. coli
In words: Binding affinities and kinetics on MTH1 surfaces by surface plasmon resonance (SPR). The following applies: on MTH1.

Some results are limits rather than exact numbers.

For `CNc1cc(-c2cccc(Cl)c2Cl)nc(N)n1` [TH-287, reference compound], in data set [1], the Microsomal stability human worked out at 32 μl/min/mg prot. Besides, the figures for the residence time in data set [2] (calculated on the basis of the KD values) and in data set [2] (value in brackets) were less than 1 min and 0.9 min, respectively.
